What all share (test): NCI-60 cell line screen, 48 h
Assay [1] concerns SK-MEL-28 melanoma.
Assay [2] concerns OVCAR-8 ovarian.
In assay [3] the test system is SK-MEL-2 melanoma.
Assay [4] deals with T-47D breast.
Assay [5] relates to U251 CNS.
In assay [6] the test system is KM12 colon.
The subject of assay [7] is MDA-MB-231 breast.
In assay [8] the test system is MCF7 breast.
Assay [9] relates to SN12C renal.
Assay [10] relates to NCI-H522 lung.
For assay [11], the system named is SF-268 CNS.
In assay [12] the test system is OVCAR-5 ovarian.
Assay [13] deals with RXF 393 renal.

Each structure is given as a SMILES string.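 96-well plates; 48 h exposure; 5 concentrations. Endpoints by linear interpolation between flanking doses. Not reached: highest tested concentration assigned. TGI: concentration producing complete growth inhibition.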

In the case of `Cc1cccc(/C=N/NC(=S)NC2CCCCC2)n1`, the TGI in assay [1] was above 100 µM; in assay [2], above 69 µM; in assay [3], above 100 µM; in assay [4], above 86.3 µM; in assay [5], above 87.8 µM; in assay [6], above 100 µM. Further, the TGI in assay [7] was above 100 µM; in assay [8], above 100 µM; in assay [9], above 100 µM; in assay [10], above 64.3 µM; in assay [11], above 100 µM; in assay [12], above 100 µM. This compound also displayed a TGI in [13] of 76.1 µM.

As to `CCOC(=O)NC(Nc1cccc(F)c1)(C(F)(F)F)C(F)(F)F`, the TGI in assay [1], in assay [2], in assay [3], in assay [4], in assay [5] and in assay [6] was above 100 µM throughout. In addition, the TGI in [7], in assay [8], in assay [9], in assay [10], in [11] and in assay [12] was above 100 µM throughout. The same compound came in with a TGI in assay [13] above 100 µM.

With `Clc1ccccc1-c1nn2c(CCCCCCCCc3nnc4sc(-c5ccccc5Cl)nn34)nnc2s1`, the TGI in assay [1], in [2], in assay [3], in assay [4], in assay [5] and in assay [6] was above 100 µM each time. Besides, the TGI in [7], in assay [8], in assay [9], in assay [10], in [11] and in [12] was above 100 µM each time. This compound showed a TGI in assay [13] above 100 µM.

Consider `Nc1c(O)c2c(c(O)c1Cl)C(=O)C=CC2=O`, for which the TGI in assay [1] turned out to be 8.68 µM; in assay [2], 14 µM; in [3] it was 23.8 µM; in assay [4] it was 21.5 µM; in [5], 15.8 µM; in [6], 13.3 µM. The TGI in assay [7] worked out at 19.7 µM; in [8] it was 3.51 µM; in assay [9], 13.7 µM; in [10] it was 28 µM; in assay [11], 26.3 µM; in assay [12] it was 11.4 µM. This compound also gave a TGI in assay [13] of 21 µM.

Turning to `CCCCC1=C(C(=O)N2CCOCC2)C2(OCCO2)C1Cl` (centres undefined), the TGI is 53.6 µM in [1]; above 100 µM in assay [2]; 51.6 µM in [3]; above 100 µM in [4]; above 100 µM in assay [5]; 41.5 µM in assay [6]. Besides, the TGI in [7] is above 100 µM; in [8], above 100 µM; in assay [9] it was 50.1 µM; in [10], 99.3 µM; in [11], above 100 µM; in assay [12], 45.5 µM. Besides, the TGI in assay [13] stood at 81.6 µM.

`Cc1nc2ccc(S(=O)(=O)Nc3ccccn3)cc2c(=O)n1NS(=O)(=O)c1ccccn1`: the TGI in [1], in assay [2], in assay [3], in assay [4], in assay [5] and in [6] was above 100 µM throughout. Further, the TGI in [7], in [8], in assay [9], in [10], in [11] and in [12] was above 100 µM in each case. The compound further showed a TGI in assay [13] above 100 µM.

As to `O=c1oc2ccccc2cc1-c1nc2ccccc2c(=O)[nH]1`, the TGI in [1], in assay [2], in [3], in assay [4], in [5] and in [6] was above 100 µM in each case. In addition, the TGI in [7], in assay [8], in assay [9], in assay [10], in [11] and in assay [12] was above 100 µM in each case. This compound also showed a TGI in assay [13] above 100 µM.

Consider `CN(C)c1ccc(/C=C(\NC(=O)c2ccccc2)c2nc3ccccc3c(=O)o2)cc1`, for which the TGI in assay [1], in assay [2], in assay [3], in assay [4], in assay [5] and in assay [6] was above 100 µM each time. Besides, the TGI in [7], in assay [8], in assay [9], in assay [10], in assay [11] and in [12] was above 100 µM in each case. Besides, the TGI in assay [13] is above 100 µM.
